Assay results reported in patent US10730863B2, “Bridged bicyclic compounds as farnesoid X receptor modulators” (BRISTOL-MYERS SQUIBB COMPANY, priority 2017, dated 2020).

Target: FXR (Homo sapiens (Human), UniProt Q96RI1)
Experiment: FXR EC50 (FXR agonist activity reported with each example)
Format: cell-based

FXR, sequence (Q96RI1 262-486): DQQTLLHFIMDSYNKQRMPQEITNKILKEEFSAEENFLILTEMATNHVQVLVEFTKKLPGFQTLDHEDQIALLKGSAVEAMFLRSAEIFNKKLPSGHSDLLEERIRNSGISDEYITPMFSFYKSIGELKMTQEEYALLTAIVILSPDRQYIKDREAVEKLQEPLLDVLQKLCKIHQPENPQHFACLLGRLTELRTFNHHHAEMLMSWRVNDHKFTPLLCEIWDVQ

SMILES	EC50 [nM]
O=C(O)c1ccc2cc(C#CC34CCC(OCc5c(-c6c(Cl)cncc6Cl)noc5C5CC5)(CC3)CC4)ccc2n1 [Example 382]	62
O=C(O)c1cc(OCC23CCC(OCc4c(-c5c(Cl)cncc5Cl)noc4C4CC4)(CC2)CC3)cc(C(F)(F)F)c1 [Example 103, 3-((4-((5-cyclopropyl-3-(3,5-dichloropyridin-4-yl)isoxazol-4-yl)methoxy)bicyclo[2.2.2]octan-1-yl)methoxy)-5-(trifluoromethyl)benzoic acid]	4
O=C(O)c1cc(-c2noc(C34CCC(OCc5c(-c6c(Cl)cncc6Cl)noc5C5CC5)(CC3)CC4)n2)cc(OC2CC2)n1 [Example 260, 6-cyclopropoxy-4-(5-(4-((5-cyclopropyl-3-(3,5-dichloropyridin-4-yl)isoxazol-4-yl)methoxy)bicyclo[2.2.2]octan-1-yl)-1,2,4-oxadiazol-3-yl)picolinic acid]	39
O=C(O)c1ncc(OCC23CCC(OCc4c(-c5c(Cl)cncc5Cl)noc4C4CC4)(CC2)CC3)cc1OC1CC1 [Example 340]	46
CC(C)Oc1ccc(C(=O)O)c2ccc(C34CCC(OCc5c(-c6c(Cl)cncc6Cl)noc5C5CC5)(CC3)CC4)nc12 [Example 391, 2-(4-((5-cyclopropyl-3-(3,5-dichloropyridin-4-yl)isoxazol-4-yl)methoxy)bicyclo[2.2.2]octan-1-yl)-8-isopropoxyquinoline-5-carboxylic acid]	14
O=C(O)c1cccc2nc(C34CCC(/C=C\c5c(-c6c(Cl)cccc6Cl)noc5C5CC5)(CC3)CC4)sc12 [Example 502, (Z)-2-(4-(2-(5-cyclopropyl-3-(2,6-dichlorophenyl)isoxazol-4-yl)vinyl)bicyclo[2.2.2]octan-1-yl)benzo[d]thiazole-7-carboxylic acid]	1500
O=C(O)c1ccc(C23CCC(CNc4c(-c5c(Cl)cccc5Cl)noc4C4CC4)(CC2)CO3)cc1 [Example 203, 4-(4-(((5-cyclopropyl-3-(2,6-dichlorophenyl)isoxazol-4-yl)amino)methyl)-2-oxabicyclo[2.2.2]octan-1-yl)benzoic acid]	420
O=C(O)c1cc(OCC23CCC(OCc4c(-c5c(Cl)cncc5Cl)noc4C4CC4)(CC2)CC3)ccc1F [Example 277]	47
COc1cncc(Cl)c1-c1noc(C2CC2)c1COC12CCC(COc3cc(OC)c4cc(C(=O)O)ccc4n3)(CC1)CC2 [Example 350, 2-((4-((3-(3-chloro-5-methoxypyridin-4-yl)-5-cyclopropylisoxazol-4-yl)methoxy)bicyclo[2.2.2]octan-1-yl)methoxy)-4-methoxyquinoline-6-carboxylic acid]	890
COc1ccc2nc(C34CCC(OCc5c(-c6c(Cl)cncc6Cl)noc5C5CC5)(CC3)CC4)ccc2c1C(=O)O [Example 428]	120
O=C(O)c1cc(OCC23CCC(OCc4c(-c5c(Cl)cccc5Cl)noc4C4CC4)(CC2)CC3)ccc1F [Example 93, 5-((4-((5-cyclopropyl-3-(2,6-dichlorophenyl)isoxazol-4-yl)methoxy)bicyclo[2.2.2]octan-1-yl)methoxy)-2-fluorobenzoic acid]	32
COc1ccc(-c2noc(C34CCC(OCc5c(-c6c(Cl)cncc6Cl)noc5C5CC5)(CC3)CC4)n2)cc1C(N)=O [Example 240, 5-(5-(4-((5-cyclopropyl-3-(3,5-dichloropyridin-4-yl)isoxazol-4-yl)methoxy)bicyclo[2.2.2]octan-1-yl)-1,2,4-oxadiazol-3-yl)-2-methoxybenzamide]	170
O=C(O)c1ccc(NC(=O)C23CCC(COCc4c(-c5c(Cl)cccc5Cl)noc4C4CC4)(CC2)CC3)c(Cl)c1 [Example 170, 3-chloro-4-(4-(((5-cyclopropyl-3-(2,6-dichlorophenyl)isoxazol-4-yl)methoxy)methyl)bicyclo[2.2.2]octane-1-carboxamido)benzoic acid]	636
CCc1cc(C(=O)O)nc2ccc(OCC34CCC(OCc5c(-c6c(Cl)cncc6Cl)noc5C5CC5)(CC3)CC4)cc12 [Example 347]	24
O=C(O)c1ccc2nc(C34CCC(/C=C\c5c(-c6c(Cl)cccc6Cl)noc5C5CC5)(CC3)CC4)sc2c1 [Example 181, (Z)-2-(4-(2-(5-cyclopropyl-3-(2,6-dichlorophenyl)isoxazol-4-yl)vinyl)bicyclo[2.2.2]octan-1-yl)benzo[d]thiazole-6-carboxylic acid]	780
COc1ccc(-c2noc(C34CCC(OCc5c(-c6c(Cl)cncc6Cl)noc5C5CC5)(CC3)CC4)n2)cc1C(=O)NS(C)(=O)=O [Example 236, 5-(5-(4-((5-cyclopropyl-3-(3,5-dichloropyridin-4-yl)isoxazol-4-yl)methoxy)bicyclo[2.2.2]octan-1-yl)-1,2,4-oxadiazol-3-yl)-2-methoxy-N-(methylsulfonyl)benzamide]	26
O=C(O)C1CC1c1noc(C23CCC(OCc4c(-c5c(Cl)cncc5Cl)noc4C4CC4)(CC2)CC3)n1 (stereo not drawn) [Example 270, 2-(5-(4-((5-cyclopropyl-3-(3,5-dichloropyridin-4-yl)isoxazol-4-yl)methoxy)bicyclo[2.2.2]octan-1-yl)-1,2,4-oxadiazol-3-yl)cyclopropane-1-carboxylic acid]	1500

SMILES	EC50 [nM]
O=C(O)c1cccc(OCC23CCC(OCc4c(-c5c(Cl)cccc5Cl)noc4C4CC4)(CC2)CC3)c1 [Example 82, 3-((4-((5-cyclopropyl-3-(2,6-dichlorophenyl)isoxazol-4-yl)methoxy)bicyclo[2.2.2]octan-1-yl)methoxy) benzoic acid]	22
O=C(O)c1cccc(/C=C/C23CCC(OCc4c(-c5c(Cl)cccc5Cl)noc4C4CC4)(CC2)CC3)c1 [Example 7, (E)-3-(2-(4-((5-cyclopropyl-3-(2,6-dichlorophenyl)isoxazol-4-yl)methoxy)bicyclo[2.2.2]octan-1-yl)vinyl)benzoic acid]	150
O=C(O)c1cccc2nc(C34CCC(C=Cc5c(-c6ccccc6OC(F)(F)F)noc5C5CC5)(CC3)CC4)sc12 [Example 183]	13
COc1ccc(-c2noc(C34CCC(OCc5c(-c6c(Cl)cncc6Cl)noc5C5CC5)(CC3)CC4)n2)nc1C(=O)O [Example 253, 6-(5-(4-((5-cyclopropyl-3-(3,5-dichloropyridin-4-yl)isoxazol-4-yl)methoxy)bicyclo[2.2.2]octan-1-yl)-1,2,4-oxadiazol-3-yl)-3-methoxypicolinic acid]	740
O=C(O)c1cc(F)cc(-c2noc(C34CCC(OCc5c(-c6c(Cl)cncc6Cl)noc5C5CC5)(CC3)CC4)n2)c1 [Example 458, 3-(5-(4-((5-cyclopropyl-3-(3,5-dichloropyridin-4-yl)isoxazol-4-yl)methoxy)bicyclo[2.2.2]octan-1-yl)-1,2,4-oxadiazol-3-yl)-5-fluorobenzoic acid]	85
O=C(O)c1cc(O)c2cc(OCC34CCC(OCc5c(-c6c(Cl)cncc6Cl)noc5C5CC5)(CC3)CC4)ccc2n1 [Example 327, 6-((4-((5-cyclopropyl-3-(3,5-dichloropyridin-4-yl)isoxazol-4-yl)methoxy)bicyclo[2.2.2]octan-1-yl)methoxy)-4-hydroxyquinoline-2-carboxylic acid]	170
O=C(O)c1cc(OC(F)F)c2cc(OCC34CCC(OCc5c(-c6c(Cl)cncc6Cl)noc5C5CC5)(CC3)CC4)ccc2n1 [Example 284, 6-((4-((5-cyclopropyl-3-(3,5-dichloropyridin-4-yl)isoxazol-4-yl)methoxy)bicyclo[2.2.2]octan-1-yl)methoxy)-4-(difluoromethoxy)quinoline-2-carboxylic acid]	8
CS(=O)(=O)NC(=O)c1cccc(C23CCC(COCc4c(-c5c(Cl)cccc5Cl)noc4C4CC4)(CC2)CO3)c1 [Example 215]	1600
O=C(O)c1cc(-c2noc(C34CCC(/C=C/c5c(-c6c(Cl)cncc6Cl)noc5C5CC5)(CC3)CC4)n2)cc(C(F)(F)F)c1 [Example 436, (E)-3-(5-(4-(2-(5-cyclopropyl-3-(3,5-dichloropyridin-4-yl)isoxazol-4-yl)vinyl)bicyclo[2.2.2]octan-1-yl)-1,2,4-oxadiazol-3-yl)-5-(trifluoromethyl)benzoic acid]	18
O=C(O)c1cc(C#CC23CCC(OCc4c(-c5c(Cl)cncc5Cl)noc4C4CC4)(CC2)CC3)cc2[nH]ncc12 [Example 411]	89
O=C(O)c1cccc(-c2noc(C34CCC(OCc5c(-c6c(Cl)cncc6Cl)noc5C5CC5)(CC3)CC4)n2)c1 [Example 232, 3-(5-(4-((5-cyclopropyl-3-(3,5-dichloropyridin-4-yl)isoxazol-4-yl)methoxy)bicyclo[2.2.2]octan-1-yl)-1,2,4-oxadiazol-3-yl)benzoic acid]	100
O=C(O)c1cccc(-c2noc(C34C5C6C3C3C4C5C63COCc3c(-c4c(Cl)cccc4Cl)noc3C3CC3)n2)c1 (stereo not drawn) [Example 513, 3-(5-(4-(((5-cyclopropyl-3-(2,6-dichlorophenyl)isoxazol-4-yl)methoxy)methyl)cuban-1-yl)-1,2,4-oxadiazol-3-yl)benzoic acid]	960
O=C(O)c1ccc2nc(C34CCC(OCc5c(-c6c(Cl)cccc6Cl)noc5C5CC5)(CC3)CC4)ncc2c1 [Example 24, 2-(4-((5-cyclopropyl-3-(2,6-dichlorophenyl)isoxazol-4-yl)methoxy)bicyclo[2.2.2]octan-1-yl)quinazoline-6-carboxylic acid]	250
O=C(O)c1cccc2nc(OCC34CCC(OCc5c(-c6c(Cl)cncc6Cl)noc5C5CC5)(CC3)CC4)ccc12 [Example 343]	75
COc1ccc(C(=O)O)cc1-c1noc(C23CCC(OCc4c(-c5c(Cl)cncc5Cl)noc4C4CC4)(CC2)CC3)n1 [Example 459, 3-(5-(4-((5-cyclopropyl-3-(3,5-dichloropyridin-4-yl)isoxazol-4-yl)methoxy)bicyclo[2.2.2]octan-1-yl)-1,2,4-oxadiazol-3-yl)-4-methoxybenzoic acid]	630
COC(=O)c1ccc(C23CCC(CNc4c(-c5c(Cl)cccc5Cl)noc4C4CC4)(CC2)CO3)cc1 [Intermediate 203A, methyl 4-(4-(((5-cyclopropyl-3-(2,6-dichlorophenyl)isoxazol-4-yl)amino)methyl)-2-oxabicyclo[2.2.2]octan-1-yl)benzoate]	2800
